# Measurements published in patent publication US11760775B2, “Steroids and protein-conjugates thereof” (Regeneron Pharmaceuticals, Inc., priority 2016, dated 2023).
# Where “and” joins values, the source holds several entries; their conditions need not be identical. Equal entries are not always repeated. Structures can show the parent of a compound that is named as a salt. Where two headings read alike, the source gives them in different places.
# Assays:
# [1] = Solubility in water and DMSO/water
# [2] = system: GR activation in 293/PRLR/GRE-Luc cells (HEK293/9xUAS-Luc2P/pBind-GR/PRLR-HA high cells); assay: GR co-activator luciferase reporter cell based assay in 293/PRLR/GRE-Luc cells; set-up: species or system human; settings: for EC50: Homo sapiens; for HEK293/9xUAS-Luc2P/pBind-GR/PRLR-HA high cells activation relative to Budesonide: fold activation vs Budesonide
# How it was run: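 EC50 was derived from a 10-point, four-parameter logistic fit of One-Glo luminescence. The reporter is driven by Gal4UAS through GR ligand-binding domain fused to Gal4 DBD in PRLR-expressing 293 cells, after ADC internalization or free steroid exposure. Activation below 10% of the free-payload maximum counts as minimal.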
# [3] = Pharmacokinetics of 4b and 6-I in mice (blood concentration-time); format: in vivo, C57BL/6j mice; set-up: Tmax: unit not given here; settings: for AUC(0-inf) / AUC(0-t) / Cmax / half-life: in vivo; for half-life: read-out: Terminal t1/2 (converted)
# [4] = system: LPS-induced cytokine release (TNF-α); assay: Mouse model of LPS induced cytokine release (TNF-α in plasma); format: in vivo, C57BL/6j mice; settings: for Inhibition of TNF-α production: 5 mpk ip before LPS challenge, plasma at 2 hr time point; for TNF-a: plasma 2 hr post LPS challenge, individual mice
# [5] = system: CD11c+ splenic DCs; assay: Ex vivo LPS-induced cytokine production in mouse splenic CD11c+ dendritic cells; format: cell-based, C57Bl/6 mice; set-up: TNF-a / IL-12p70 / IL-1b / IL-6 / KC-GRO: unit not given here
# Method: (§1) Supernatants were collected into 96-well round bottom tissue culture plates 24 hours post-LPS challenge and stored at −20° C. until further analysis. Cytokine concentrations in the supernatants were measured using a Pro-inflammatory Panel 1 (mouse) multiplex immunoassay kit (MesoScale Discovery, Cat #K15048D) according to manufacturer's instructions or Pro-inflammatory Panel 1 (human) multiplex immunoassay kit (MesoScale Discovery, Cat #K15049D). In brief, 50 μL/well of calibrators and samples (diluted in Diluent 1:2) were added to the plates pre-coated with capture antibodies and incubated at room temperature while shaking at 700 rpm for 2 hours. The plates were then washed 3 times with 1×PBS containing 0.05% (w/v) Tween-20, followed by the addition of 25 μL of Detection Antibody Solution diluted in Diluent 45. After 2-hour incubation at room temperature while shaking, the plates were washed 3 times, and 150 μL of 2× Read Buffer was added to each well. Electrochemiluminescence was immediately read on a MSD Spector® instrument. Data analysis was performed using GraphPad Prism™ software. Statistical significance within the groups was determined by one-way Anova with Turkey's multiple comparison post-test and standard error of mean (SEM±) calculated.
# [6] = system: GR activation in 293/GRE-Luc cells (293_PBind GR/UAS-Luc); assay: Luciferase reporter assay in antigen negative 293/GRE-Luc cells; format: cell-based, human; settings: Homo sapiens, 72 h, read-out: EC50 in 293/GRE-Luc (M)
# [7] = system: human monocyte derived-DC; assay: Ex vivo LPS-induced cytokine production in human monocyte derived DCs; format: cell-based; set-up: IL-6 / IL-8 / TNF-a / IL-12p70 / IL-1b: unit not given here
# Method: The complete-RPMI with IL4 and GM-CSF was changed every three days. […]
# as §1
# [8] = HEK293, read-out: HEK293/9xUAS-Luc2P/pBind-GR/PRLR-HA high cells EC50
# [9] = mouse, IP, 1 mg/Kg in male C57BL/6 mice, Mean
# [10] = male, C57BL/6, mouse, ip, 1 mg/kg
smiles,measurement,setting,value
CCC[C@@H]1O[C@@H]2C[C@H]3[C@@H]4CCC5=CC(=O)C=C[C@]5(C)[C@H]4[C@@H](O)C[C@]3(C)[C@]2(C(=O)COc2ccc(NC(=O)[C@H](C)NC(=O)[C@@H](NC(=O)[C@@H](CCCCNC(=O)COC3CCCCCc4c3nnn4CC3OC4OC5C(CO)OC(OC6C(CO)OC(OC7C(CO)OC(OC8C(CO)OC(OC9C(CO)OC(OC3C(O)C4O)C(O)C9O)C(O)C8O)C(O)C7O)C(O)C6O)C(O)C5O)NC(=O)CCOCCOCCOCCOCCNC(=O)CCC(=O)N3Cc4ccccc4C#Cc4ccccc43)C(C)C)cc2)O1 (some centres unmarked) [LP16],solubility,"[1]; 10% DMSO in water, aqueous with cosolvent or surfactant or cyclodextrin",100 µg/mL
"CCCC1O[C@@H]2C[C@H]3[C@@H]4C[C@H](F)C5=CC(=O)C=C[C@]5(C)[C@@]4(F)[C@@H](O)C[C@]3(C)[C@]2(C(=O)COc2ccc(N)cc2)O1 (stereo partly drawn) [Compound 6-I, (1S,2S,4R,8S,9S,11S,12R,13S,19S)-8-[2-(4-Aminophenoxy)acetyl]-12,19-difluoro-11-hydroxy-9,13-dimethyl-6-propyl-5,7-dioxapentacyclo[10.8.0.0^2,90.0^4,80.0^13,118]icosa-14,17-dien-16-one]",EC50,[2]; [8],< 1e-08 M
same,HEK293/9xUAS-Luc2P/pBind-GR/PRLR-HA high cells activation relative to Budesonide,[2],Full
same,Tmax,"[3]; IP, 1 mg/Kg in male C57BL/6 mice, Mean",0.250
same,AUC(0-inf),"[3]; mouse, IP, 1 mg/Kg in male C57BL/6 mice, Mean, read-out: AUCINF",113 ng·h/mL
same,AUC(0-t),"[3]; mouse, IP, 1 mg/Kg in male C57BL/6 mice, Mean, read-out: AUClast",107 ng·h/mL
same,Cmax,"[3]; mouse, IP, 1 mg/Kg in male C57BL/6 mice, Mean, read-out: Cmax",44.8 ng/mL
same,half-life,[3]; [9],115 min
same,Inhibition of TNF-α production,[4],time dependent inhibition
same,TNF-a,[4]; 5MPK ip (−2 h) prior to LPS,110.6 pg/mL and 30.8 pg/mL and 240.8 pg/mL
same,TNF-a,[4]; 5MPK ip (−24 h) prior to LPS,23.1 pg/mL and 997.3 pg/mL and 55.4 pg/mL
same,TNF-a,[4]; 5MPK ip (−48 h) prior to LPS,1280.1 pg/mL and 1149.4 pg/mL and 750.0 pg/mL
"CCCC1O[C@@H]2C[C@H]3[C@@H]4C[C@H](F)C5=CC(=O)C=C[C@]5(C)[C@@]4(F)[C@@H](O)C[C@]3(C)[C@]2(C(=O)CN)O1 (stereo partly drawn) [Compound 4b, (1S,2S,4R,6R,8S,9S,11S,12R,13S,19S)-8-(2-Aminoacetyl)-12,19-difluoro-11-hydroxy-9,13-dimethyl-6-propyl-5,7-dioxapentacyclo[10.8.0.0^2,90.0^4,80.0^13,18]icosa-14,17-dien-16-one; trifluoroacetic Acid Salt]",IL-1b,[5]; 10 nM + LPS,6.32 ± 0.83
same,IL-6,[5]; 10 nM + LPS,184.54 ± 21.59
same,IL-12p70,[5]; 10 nM + LPS,3.84 ± 2.88
same,KC-GRO,[5]; 10 nM + LPS,186.57 ± 15.71
same,TNF-a,[5]; 10 nM + LPS,146.46 ± 18.66
same,LPS-induced cytokine responses in CD11c+ DCs,[5]; 10 nM and 100 nM for 24 hours before LPS 10 ng/mL,significantly decreased LPS-induced cytokine responses
same,IL-1b,"[5]; 10 nM, no LPS",5.22 ± 0.11
same,IL-6,"[5]; 10 nM, no LPS",47.90 ± 4.55
same,IL-12p70,"[5]; 10 nM, no LPS",5.24 ± 1.12
same,KC-GRO,"[5]; 10 nM, no LPS",62.85 ± 6.51
same,TNF-a,"[5]; 10 nM, no LPS",0 ± 0
same,IL-1b,[5]; 100 nM + LPS,4.80 ± 0.99
same,IL-6,[5]; 100 nM + LPS,201.10 ± 20.96
same,IL-12p70,[5]; 100 nM + LPS,8.21 ± 2.79
same,KC-GRO,[5]; 100 nM + LPS,211.96 ± 25.23
same,TNF-a,[5]; 100 nM + LPS,193.29 ± 25.56
same,IL-1b,"[5]; 100 nM, no LPS",5.65 ± 0.18
same,IL-6,"[5]; 100 nM, no LPS",63.87 ± 4.78
same,IL-12p70,"[5]; 100 nM, no LPS",6.43 ± 0.67
same,KC-GRO,"[5]; 100 nM, no LPS",84.30 ± 6.06
same,TNF-a,"[5]; 100 nM, no LPS",0 ± 0
same,EC50 of GRE-Luc activation,"[2]; 293/PRLR/GRE-Luc cells, 72 hours",better IC50 value than Budesonide and Dexamethasone
same,EC50,"[2]; HEK293, read-out: EC50 in 293/PRLR/GRE-Luc (M), 72 hrs of incubation",< 5e-09 M
same,EC50,[2]; [8],< 1e-08 M
same,HEK293/9xUAS-Luc2P/pBind-GR/PRLR-HA high cells activation relative to Budesonide,[2],Full
same,EC50,[6],< 5e-09 M
same,AUC(0-inf),[3]; [10],89.2 ng·h/mL
same,AUC(0-t),[3]; [10],84.6 ng·h/mL
same,Cmax,[3]; [10],39.4 ng/mL
same,half-life,[3]; [9],101 min
same,Pro-inflammatory cytokine production,[7]; Condition 1: entire 7-day conditioning period,significantly reduced pro-inflammatory cytokine production
same,IL-1b,"[7]; Condition 1, 10 nM + LPS",1.18 ± 0.11
same,IL-6,"[7]; Condition 1, 10 nM + LPS",325.46 ± 2.12
same,IL-8,"[7]; Condition 1, 10 nM + LPS",8670.27 ± 268.97
same,IL-12p70,"[7]; Condition 1, 10 nM + LPS",1.05 ± 0.08
same,TNF-a,"[7]; Condition 1, 10 nM + LPS",117.75 ± 6.63
same,IL-1b,"[7]; Condition 1, 10 nM, no LPS",0.61 ± 0.007
same,IL-6,"[7]; Condition 1, 10 nM, no LPS",2.23 ± 0.002
same,IL-8,"[7]; Condition 1, 10 nM, no LPS",166.99 ± 2.01
same,IL-12p70,"[7]; Condition 1, 10 nM, no LPS",0.58 ± 0.002
same,TNF-a,"[7]; Condition 1, 10 nM, no LPS",1.28 ± 0.087
same,IL-1b,"[7]; Condition 1, 100 nM + LPS",1.01 ± 0.07
same,IL-6,"[7]; Condition 1, 100 nM + LPS",159.32 ± 7.31
same,IL-8,"[7]; Condition 1, 100 nM + LPS",8461.59 ± 522.77
same,IL-12p70,"[7]; Condition 1, 100 nM + LPS",0.50 ± 0.19
same,TNF-a,"[7]; Condition 1, 100 nM + LPS",123.31 ± 0.11
same,IL-1b,"[7]; Condition 1, 100 nM, no LPS",0.641 ± 0.15
same,IL-6,"[7]; Condition 1, 100 nM, no LPS",3.45 ± 0.13
same,IL-8,"[7]; Condition 1, 100 nM, no LPS",136.50 ± 0.87
same,IL-12p70,"[7]; Condition 1, 100 nM, no LPS",0.66 ± 0.03
same,TNF-a,"[7]; Condition 1, 100 nM, no LPS",1.46 ± 0.10
same,"Production of IL12p70, IL6 and TNF-α",[7]; Condition 2: conditioning of mature monocyte-derived DCs,"significantly decreased the production of IL12p70, IL6 and TNF-α"
same,IL-1b,"[7]; Condition 2, 10 nM + LPS",30.10 ± 0.93
same,IL-6,"[7]; Condition 2, 10 nM + LPS",5124.75 ± 114.8
same,IL-8,"[7]; Condition 2, 10 nM + LPS",3003.52 ± 212.16
same,IL-12p70,"[7]; Condition 2, 10 nM + LPS",4.81 ± 0.63
same,TNF-a,"[7]; Condition 2, 10 nM + LPS",874.18 ± 30.46
same,IL-1b,"[7]; Condition 2, 10 nM, no LPS",0.59 ± 0.005
same,IL-6,"[7]; Condition 2, 10 nM, no LPS",12.87 ± 0.312
same,IL-8,"[7]; Condition 2, 10 nM, no LPS",274.75 ± 1.75
same,IL-12p70,"[7]; Condition 2, 10 nM, no LPS",0.60 ± 0.01
same,TNF-a,"[7]; Condition 2, 10 nM, no LPS",2.03 ± 0.14
same,IL-1b,"[7]; Condition 2, 100 nM + LPS",18.20 ± 1.04
same,IL-6,"[7]; Condition 2, 100 nM + LPS",4680.03 ± 104.90
same,IL-8,"[7]; Condition 2, 100 nM + LPS",2735.36 ± 87.88
same,IL-12p70,"[7]; Condition 2, 100 nM + LPS",2.03 ± 0.16
same,TNF-a,"[7]; Condition 2, 100 nM + LPS",696.26 ± 75.10
same,IL-1b,"[7]; Condition 2, 100 nM, no LPS",0.59 ± 0.03
same,IL-6,"[7]; Condition 2, 100 nM, no LPS",11.25 ± 0.82
same,IL-8,"[7]; Condition 2, 100 nM, no LPS",317.46 ± 14.83
same,IL-12p70,"[7]; Condition 2, 100 nM, no LPS",0.61 ± 0.02
same,TNF-a,"[7]; Condition 2, 100 nM, no LPS",1.37 ± 0.251
same,Inhibition of TNF-α production,[4],significantly inhibited TNF-α production
same,TNF-a,"[4]; 5MPK ip (−2 h) prior to LPS, trifluoroacetic Acid Salt",56.5 pg/mL and 10.4 pg/mL and 274.8 pg/mL
CCC[C@@H]1O[C@@H]2C[C@H]3[C@@H]4CCC5=CC(=O)C=C[C@]5(C)[C@H]4[C@@H](O)C[C@]3(C)[C@]2(C(=O)COc2ccc(NC(=O)[C@H](C)NC(=O)[C@@H](NC(=O)CCOCCOCCOCCOCCNC(=O)CCC(=O)N3Cc4ccccc4C#Cc4ccccc43)C(C)C)cc2)O1 [LP7],solubility,"[1]; 20% DMSO in water, aqueous with cosolvent or surfactant or cyclodextrin",60 µg/mL
same,solubility,"[1]; 30% DMSO in water, aqueous with cosolvent or surfactant or cyclodextrin",70 µg/mL
same,solubility,[1]; water,< 100 µg/mL
